Columns and labels:
[1] = target: BCL2 (Homo sapiens, UniProt P10415); assay: BCL2 affinity assay (competition binding, qPCR readout); settings: recombinant BCL2, 11-point 3-fold dilution series
Description: (§1) Recombinant MCL1, BCL2 and BCXL proteins were prepared in either an E. coli host derived from the BL21 strain or in HEK-293 cells. The recombinant proteins were subsequently tagged with DNA for qPCR detection. Streptavidin-coated magnetic beads were treated for 30 minutes at room temperature with the respective biotinylated peptide ligands for each recombinant protein to generate affinity resins for the assays. The liganded beads were blocked with excess biotin and washed with blocking buffer (SeaBlock (Pierce), 1% BSA, 0.05% Tween 20, 1 mM DTT) to remove unbound ligand and to reduce nonspecific binding. Binding reactions were assembled by combining recombinant protein, liganded affinity beads, and test compounds in 1× binding buffer (20% SeaBlock, 0.17×PBS, 0.05% Tween 20, 6 mM DTT). Test compounds were prepared as 111X stocks in 100% DMSO. The compounds were then diluted directly into the assays such that the final concentration of DMSO was 0.9%. The assay plates were incubated at room temperature with shaking for 1 hour and the affinity beads were washed with wash buffer (1×PBS, 0.05% Tween 20). The beads were then re-suspended in elution buffer (1×PBS, 0.05% Tween 20, 0.5 μM non-biotinylated affinity ligand) and incubated at room temperature with shaking for 30 minutes. The recombinant protein concentration in the eluates was measured by qPCR. Kds were determined using an 11-point 3-fold compound dilution series with three DMSO control points.

[2] = target: BCLXL (Homo sapiens, UniProt Q07817); assay: BCLXL affinity assay (competition binding, qPCR readout); settings: recombinant BCLXL, 11-point 3-fold dilution series
Description: as §1

[3] = system: drug-resistant cell lines of Table 3; assay: Cell line growth retardation assay, resistant cohort; format: cell-based, Human; settings: Homo sapiens, 144 h; arithmetic mean of IC50s over the resistant cohort of Table 3, 6 days growth; read-out: AvgRes IC50
Procedure, shortened: (§2)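 Over 6 days of treatment at six concentrations (0.0032–10 μM), given after a 24 h post-seeding rest, population doublings were counted by imaging against a pre-dose baseline and compared with vehicle. Per-line IC50 values came from dose-response fits; cohort averages used arithmetic means, with sensitive/resistant grouping based on response to reference MCL1 inhibitors.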

[4] = target: MCL1 (Homo sapiens, UniProt Q07820); assay: MCL1 affinity assay (competition binding, qPCR readout); settings: recombinant MCL1, 11-point 3-fold dilution series
Procedure, shortened: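 Kds derived from an 11-point 3-fold compound series measured by qPCR of protein eluted from ligand beads. Recombinant, DNA-tagged protein from E. coli or HEK-293 was mixed with compound and peptide-liganded beads in SeaBlock/PBS/Tween/DTT buffer for 1 hour at room temperature (0.9% DMSO).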

[5] = system: drug-sensitive cell lines of Table 3; assay: Cell line growth retardation assay, sensitive cohort; format: cell-based, Human; settings: for IC50: Homo sapiens, 144 h, arithmetic mean of IC50s over the sensitive cohort of Table 3, 6 days growth, read-out: AvgSen IC50; for Fold Diff: average IC50 of resistant cohort divided by average IC50 of sensitive cohort
Procedure, shortened: as §2

Sequence of BCL2 (P10415 whole entry): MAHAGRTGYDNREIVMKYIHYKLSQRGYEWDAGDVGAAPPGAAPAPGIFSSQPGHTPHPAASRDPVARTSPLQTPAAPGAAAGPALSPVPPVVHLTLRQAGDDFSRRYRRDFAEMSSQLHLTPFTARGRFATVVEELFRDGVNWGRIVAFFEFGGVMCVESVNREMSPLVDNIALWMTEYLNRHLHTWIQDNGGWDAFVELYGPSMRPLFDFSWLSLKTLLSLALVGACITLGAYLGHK
Sequence of MCL1 (Q07820 whole entry): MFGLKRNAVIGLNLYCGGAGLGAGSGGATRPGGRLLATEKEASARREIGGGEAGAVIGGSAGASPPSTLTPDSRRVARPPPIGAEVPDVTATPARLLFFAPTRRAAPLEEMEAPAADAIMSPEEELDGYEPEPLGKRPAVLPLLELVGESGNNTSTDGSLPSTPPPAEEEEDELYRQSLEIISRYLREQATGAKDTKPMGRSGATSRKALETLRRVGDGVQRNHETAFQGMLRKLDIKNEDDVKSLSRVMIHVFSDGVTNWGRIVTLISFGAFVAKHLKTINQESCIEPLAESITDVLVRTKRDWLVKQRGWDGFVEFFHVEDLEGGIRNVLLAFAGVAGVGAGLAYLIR
Sequence of BCLXL (Q07817 whole entry): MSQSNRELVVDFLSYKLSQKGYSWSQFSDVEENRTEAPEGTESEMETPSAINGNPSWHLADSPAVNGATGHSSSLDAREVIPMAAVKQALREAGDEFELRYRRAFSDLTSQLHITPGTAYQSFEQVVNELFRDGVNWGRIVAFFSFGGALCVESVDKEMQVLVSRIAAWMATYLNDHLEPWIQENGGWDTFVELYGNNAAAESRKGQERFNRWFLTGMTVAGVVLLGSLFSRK

Kd [1] [nM]	Kd [2] [nM]	Kd [4] [nM]	SMILES	IC50 [3] [nM]	IC50 [5] [nM]	Fold Diff [5]
> 1500	> 1500	> 1500	Cc1c(-c2c(-c3cccc4c3CCC4)ncc3snc(O[C@H](Cc4ccccc4OCc4ccnn4CC(F)(F)F)C(=O)O)c23)ccc(OCCN2CCN(C)CC2)c1Cl (atropisomer, axis not shown) [Compound 13]	> 5000	> 5000	− (“−” represents a fold difference less than 10)
> 1500	> 1500	> 1500	Cc1c(-c2c(-c3cccc4c3NC(=O)C4)ncc3snc(O[C@H](Cc4ccccc4OCc4ccnn4CC(F)(F)F)C(=O)O)c23)ccc(OCCN2CCN(C)CC2)c1Cl (atropisomer, axis not shown) [Compound 12]	> 5000	> 5000	− (“−” represents a fold difference less than 10)
> 1500	> 1500	101 to 500	Cc1c(-c2c(-c3ccsc3)ncc3snc(O[C@H](Cc4ccccc4OCc4ccnn4CC(F)(F)F)C(=O)O)c23)ccc(OCCN2CCN(C)CC2)c1Cl (atropisomer, axis not shown) [Compound 27]	> 5000	1000 to 5000	− (“−” represents a fold difference less than 10)
> 1500	> 1500	501 to 1500	Cc1c(-c2c(-c3ccccn3)ncc3snc(O[C@H](Cc4ccccc4OCc4ccnn4CC(F)(F)F)C(=O)O)c23)ccc(OCCN2CCN(C)CC2)c1Cl (atropisomer, axis not shown) [Compound 52]	> 5000	> 5000	− (“−” represents a fold difference less than 10)
> 1500	> 1500	≤ 100	COc1cccc(-c2ncc3snc(O[C@H](Cc4ccccc4OCc4ccnc(-c5ccccc5OC)n4)C(=O)O)c3c2-c2ccc(OCCN3CCCC3)c(Cl)c2C)c1 (atropisomer, axis not shown) [Compound 50]	> 5000	≤ 1000	+ (“+” represents a fold difference of 10 or more)
> 1500	> 1500	≤ 100	COCCOc1ccc(-c2c(-c3cccc(OC)c3)ncc3snc(O[C@H](Cc4ccccc4OCc4ccnc(-c5ccccc5OC)n4)C(=O)O)c23)c(C)c1Cl (atropisomer, axis not shown) [Compound 44]	> 5000	> 5000	− (“−” represents a fold difference less than 10)
> 1500	> 1500	> 1500	Cc1c(-c2c(-c3cccc4cc[nH]c34)ncc3snc(O[C@H](Cc4ccccc4OCc4ccnn4CC(F)(F)F)C(=O)O)c23)ccc(OCCN2CCN(C)CC2)c1Cl (atropisomer, axis not shown) [Compound 18]	> 5000	> 5000	− (“−” represents a fold difference less than 10)
> 1500	> 1500	≤ 100	COc1cccc(-c2ncc3snc(O[C@H](Cc4ccccc4OCc4ccnc(-c5ccccc5OC)n4)C(=O)O)c3c2-c2ccc(OCCCN(C)C)c(Cl)c2C)c1 (atropisomer, axis not shown) [Compound 47]	> 5000	≤ 1000	+ (“+” represents a fold difference of 10 or more)

SMILES	Kd [1] [nM]	Kd [2] [nM]	Kd [4] [nM]	IC50 [3] [nM]	IC50 [5] [nM]	Fold Diff [5]
COc1cccc(-c2ncc3snc(O[C@H](Cc4ccccc4OCc4ccnc(-c5ccccc5OC)n4)C(=O)O)c3c2-c2ccc(OCCN3CCOCC3)c(Cl)c2C)c1 (single isomer, unassigned) [Compound 42]	> 1500	> 1500	≤ 100	> 5000	1000 to 5000	− (“−” represents a fold difference less than 10)

— patent US20230116602A1, “MCL1 INHIBITORS AND USES THEREOF” (California Institute of Technology, priority 2019, published 2023)
